One compound from patent publication EP1189615B1, “ENDOPARASITICIDAL SYNERGISTIC COMBINATION CONTAINING CYCLIC DEPSIPEPTIDES AND PIPERAZINES” (Bayer HealthCare AG, priority 1999, dated 2000) can be followed below.

Like-named read-outs stand apart in the source and are kept apart here.

One assay relates to Trichinella spiralis. Particulars: in-vitro. An excerpt: (§1) Die Durchführung der biologischen Tests erfolgte entsprechend den bekannten Verfahren (Plant et. al. Pesticide Science, 1996, 48, S. 351 ff.).
The subject of a further assay is Nematospiroides dibius. Conditions: Maus.
From the text: as §1

Another assay concerns Heterakis spumosa. Particulars: Maus.
From the text: as §1

On to `C1CNCCN1` [Piperazin], for which the Wirkung in the assay on Trichinella spiralis (Konzentration 500 µg/ml) is on record as 0; with Trichinella spiralis (Konzentration 1000 µg/ml), 0-1; in the assay with Nematospiroides dibius (Dosis 2 x 2000 mg/kg) it was 2 (Wurmreduktion 75-90 %); in the assay with Nematospiroides dibius (Dosis 4 x 1000 mg/kg) it was 1 (Wurmreduktion 50-75 %); in the assay on Heterakis spumosa (Dosis 4 x 100 mg/kg), 0 (Wurmreduktion <50 %); in the assay on Heterakis spumosa (Dosis 4 x 250 mg/kg) it was 1 (Wurmreduktion 50-75 %).
